Measured values: BindingDB's records for patent US12391669 (University Of California, 2025)

Columns and labels:
[1] = molecular target: Serine/threonine-protein kinase/endoribonuclease IRE1 (Homo sapiens, UniProt O75460); assay: Not found
Source text: Not found

[2] = molecular target: Serine/threonine-protein kinase/endoribonuclease IRE2 (Human, UniProt Q76MJ5); assay: Not found
Source text: Not found

Sequence of Serine/threonine-protein kinase/endoribonuclease IRE1 (O75460 whole entry): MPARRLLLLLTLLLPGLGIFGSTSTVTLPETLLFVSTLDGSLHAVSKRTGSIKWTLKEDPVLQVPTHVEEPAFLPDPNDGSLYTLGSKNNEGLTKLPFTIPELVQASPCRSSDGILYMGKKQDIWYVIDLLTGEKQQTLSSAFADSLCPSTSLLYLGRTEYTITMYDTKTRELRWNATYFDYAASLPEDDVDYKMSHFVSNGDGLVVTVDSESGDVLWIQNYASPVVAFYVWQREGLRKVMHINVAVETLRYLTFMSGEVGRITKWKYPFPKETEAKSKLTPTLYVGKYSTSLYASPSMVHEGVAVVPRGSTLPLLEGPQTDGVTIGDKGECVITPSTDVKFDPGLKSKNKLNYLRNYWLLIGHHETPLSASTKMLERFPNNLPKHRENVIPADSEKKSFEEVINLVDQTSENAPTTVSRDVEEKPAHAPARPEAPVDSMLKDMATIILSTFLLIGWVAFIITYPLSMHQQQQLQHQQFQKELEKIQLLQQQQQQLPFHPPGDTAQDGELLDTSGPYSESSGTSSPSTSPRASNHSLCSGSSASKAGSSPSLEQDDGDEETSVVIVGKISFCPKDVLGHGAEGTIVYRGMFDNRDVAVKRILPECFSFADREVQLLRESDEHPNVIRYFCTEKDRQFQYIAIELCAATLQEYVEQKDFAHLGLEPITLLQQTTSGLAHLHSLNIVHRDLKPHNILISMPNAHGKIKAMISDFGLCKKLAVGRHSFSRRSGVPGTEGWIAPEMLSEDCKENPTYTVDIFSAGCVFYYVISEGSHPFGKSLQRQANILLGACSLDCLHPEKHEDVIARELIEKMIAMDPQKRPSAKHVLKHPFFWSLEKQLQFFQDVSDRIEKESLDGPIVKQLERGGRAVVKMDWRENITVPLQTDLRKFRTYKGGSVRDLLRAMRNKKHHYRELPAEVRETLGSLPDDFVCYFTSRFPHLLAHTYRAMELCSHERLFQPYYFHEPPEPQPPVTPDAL
Sequence of Serine/threonine-protein kinase/endoribonuclease IRE2 (Q76MJ5 whole entry): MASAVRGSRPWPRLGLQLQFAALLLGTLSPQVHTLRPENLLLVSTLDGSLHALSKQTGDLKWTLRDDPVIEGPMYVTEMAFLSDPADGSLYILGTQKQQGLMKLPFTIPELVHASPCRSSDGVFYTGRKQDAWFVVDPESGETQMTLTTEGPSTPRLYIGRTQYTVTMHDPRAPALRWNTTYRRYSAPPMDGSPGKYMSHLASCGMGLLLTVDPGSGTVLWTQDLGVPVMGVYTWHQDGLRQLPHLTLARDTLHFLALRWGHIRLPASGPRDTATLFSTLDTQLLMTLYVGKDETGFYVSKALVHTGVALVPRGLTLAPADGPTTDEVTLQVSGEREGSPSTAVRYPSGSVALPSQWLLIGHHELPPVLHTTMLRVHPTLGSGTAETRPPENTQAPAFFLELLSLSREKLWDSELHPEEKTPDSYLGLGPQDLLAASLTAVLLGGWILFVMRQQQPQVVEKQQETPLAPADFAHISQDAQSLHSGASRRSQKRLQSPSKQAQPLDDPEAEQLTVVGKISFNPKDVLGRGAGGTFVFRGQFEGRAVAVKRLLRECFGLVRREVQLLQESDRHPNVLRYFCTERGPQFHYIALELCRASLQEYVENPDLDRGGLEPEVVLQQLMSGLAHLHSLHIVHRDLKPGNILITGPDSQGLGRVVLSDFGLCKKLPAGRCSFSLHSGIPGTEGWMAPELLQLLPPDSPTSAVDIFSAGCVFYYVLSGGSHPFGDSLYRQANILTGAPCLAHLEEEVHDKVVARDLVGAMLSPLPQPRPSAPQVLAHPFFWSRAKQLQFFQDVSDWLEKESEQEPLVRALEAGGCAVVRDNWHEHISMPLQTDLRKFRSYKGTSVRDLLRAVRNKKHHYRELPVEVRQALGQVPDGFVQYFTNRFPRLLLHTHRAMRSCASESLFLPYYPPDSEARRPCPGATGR

SMILES | IC50 [1] | IC50 [2]
Cc1ccc(C(=O)NCc2ccccc2Cl)cc1Oc1ncsc1-c1ccnc(N[C@H]2CCCNC2)n1 [US12391669, Compound 20] | 52 nM | > 10000 nM
c1cc(Cc2nc3ccccc3[nH]2)cc(Oc2ncsc2-c2ccnc(N[C@H]3CCCNC3)n2)c1 [US12391669, Compound 35] | 443 nM | 
